Here are results for 49 compounds from article PMC9124866, “Structure-Activity Relationships of Dopamine Transporter Pharmacological Chaperones” (Frontiers in Cellular Neuroscience, 2022).

Sequence of YFP-HA-βlac-DAT (Q01959 1-171 limits assumed): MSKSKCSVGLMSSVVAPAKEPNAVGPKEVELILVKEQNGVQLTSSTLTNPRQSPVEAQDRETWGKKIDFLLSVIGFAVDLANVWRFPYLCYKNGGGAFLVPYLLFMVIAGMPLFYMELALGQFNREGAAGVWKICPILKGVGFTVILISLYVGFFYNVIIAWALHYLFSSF
Sequence of YFP-HA-βlac-DAT (Q01959 237-620 limits assumed): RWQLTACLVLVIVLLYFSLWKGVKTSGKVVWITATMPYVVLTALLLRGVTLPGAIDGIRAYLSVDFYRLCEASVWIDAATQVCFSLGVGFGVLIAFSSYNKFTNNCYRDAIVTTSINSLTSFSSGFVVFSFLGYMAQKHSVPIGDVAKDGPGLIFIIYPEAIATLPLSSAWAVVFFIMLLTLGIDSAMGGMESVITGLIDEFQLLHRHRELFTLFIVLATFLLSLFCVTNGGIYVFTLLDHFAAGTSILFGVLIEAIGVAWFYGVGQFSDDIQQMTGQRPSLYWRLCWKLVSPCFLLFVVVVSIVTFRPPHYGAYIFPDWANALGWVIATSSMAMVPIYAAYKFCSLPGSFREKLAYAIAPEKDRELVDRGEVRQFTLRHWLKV

In the first experiment the target is YFP-HA-βlac-DAT (Homo sapiens, UniProt Q01959). The experiment in a line: β-lactamase (βlac) surface expression assay. The class given is cell-based. The settings on record: HEK293, HEK cells expressing YFP-HA-βlac-DAT, overnight (16 h) incubation, up to 100 μM, normalized to vehicle; assumed effective EMax; read-out: EMax (%), WT DAT surface expression. The protocol:
The βlac surface expression assay was performed by following the method outlined in [Lam et al. (2013)] and [Beerepoot et al. (2015], [2016)]. The assay substrate nitrocefin (BD biosciences) was dissolved in dimethyl sulfoxide (DMSO) at a concentration of 10 mM and frozen at −80°C. Immediately before use, it was thawed and diluted to a final concentration of 100 μM in phosphate buffered saline (PBS). Cells (1 × 10^5/well) were seeded into a poly-D-lysine-coated 48-well plate and incubated for 24 h, prior to drug treatment. Drugs were added to individual wells at varying concentrations and incubated for 16 h. Subsequently, the media was aspirated, and the cells were washed twice with PBS. After removal of the final PBS wash, 200 μL of the nitrocefin solution was added to each well and the absorbance was immediately read. The EPOCH microplate spectrophotometer (BioTek) was used to measure absorbance (486 nm) for each well every minute for 30 min. The rate of reaction (slope of the curve) was used as the readout for the assay ([Beerepoot et al., 2015]). To determine suitable concentration ranges for each drug, they were dissolved in PBS or DMSO at the highest concentration possible. From here, the solutions were serial diluted 1/10 to yield 8 different concentrations. βLAC cells were then treated with the varying drug concentrations and cell viability was recorded using light microscopy. For additional measure, nitrocefin was added and the absorbance was read. For certain cases, Trypan Blue was used to quantitatively differentiate increased cell death from reduced cell division. […] Five or six doses were generally used in subsequent dosing experiments, starting at the highest non-toxic concentration.
Data analysis was performed using GraphPad Prism (GraphPad Software, La Jolla, CA). Linear regression analysis was performed on βLAC time points to determine the slope, thus the rate of reaction, for comparison. Furthermore, the slope was also used to determine the degree of dopamine uptake in the dopamine uptake assays. Non-linear regression, fitting to the log(agonist) vs. response and log(inhibitor) vs. response model curve, was used to determine dose-response relationships of surface expression and uptake assays, respectively. One-way ANOVA with Dunnett’s post hoc-test was used for the β-lactamase assay and one-way ANOVA with Bonferroni correction was used for western blot analysis.
Among these were RTI-1, RTI-2, RTI-5, RTI-6, RTI-11, RTI-20, and PAL-1007. […] The EMax values of all the analyzed drugs are included in Figure 1.
The pharmacological chaperone ability of the 15 ibogaine and tryptamine analogs, shown in Figure 3, were measured using the βlac surface expression assay. HEK cells expressing YFP-HA-βlac-DAT were incubated overnight with these compounds at concentrations varying by log and half-log dilutions, starting at 100 μM final concentration. […] Furthermore, it was important to determine whether the β-carboline analogs could also elicit a chaperone effect because they are not classified as DAT ligands ([Cao et al., 2007]). […] Removing the nitrogen from the ring reduced efficacy as observed with frovatriptan (103 ± 1.4%). […] Evodiamine (54 ± 1.7%) had no chaperone ability and caused a substantial reduction in the surface expression of DAT. Dose-response curves were generated to assess the pharmacological chaperone potencies of select compounds (Figure 4).
For the compound `CC(NC1CCC1)C(=O)c1cccc(F)c1` (stereo not shown) [PAL-1008], the Emax was determined as 96 ± 7.3%.
As for `COc1ccc2[nH]c3c(c2c1)CCN(C)CC3` [Ibogainealog, ibogainealog], the Emax amounted to 169 ± 13.7%.
Same read-out and setting: under `CC(NC(C)(C)C)C(=O)c1ccc(Br)cc1` (stereo not shown) [RTI-2] stands 127 ± 2.6%; under `CN1CCc2[nH]c3ccccc3c2CC1` [Ibogaminalog], 175 ± 12.9%.
The same measure, in the same setting: the figure for `CC(C)NC(C)C(=O)c1cccc(Cl)c1` (stereo not shown) [PAL-1467] is 100 ± 4%; for `CC(NC(C)(C)C)C(=O)c1cccc(F)c1` (stereo not shown) [PAL-1466] it is 100%.
Still for that read-out and setting: under `Cc1ccc(C(=O)C(C)N)cc1` (stereo not shown) [PAL-1270] stands 104 ± 2.3%; under `Cc1cccc(C(=O)C(C)NC(C)(C)C)c1` (stereo not shown) [RTI-6], 134 ± 9.6%; under `CC(NC1CCC1)C(=O)c1ccc2c(c1)OCO2` (stereo not shown) [PAL-1414], 102%.
On to `COc1cccc(C(=O)C(C)NC(C)(C)C)c1` (stereo not shown) [PAL-1465], for which the Emax was determined as 91%.
Still for that read-out and setting: the figure for `CC(NC(C)(C)C)C(=O)c1ccc(F)c(F)c1` (stereo not shown) [RTI-13] is 99 ± 4.3%; for `CC(NC(C)(C)C)C(=O)c1ccccc1` (stereo not shown) [PAL-1463] it is 117%; for `CC(NC1CC1)C(=O)c1ccc(F)c(Cl)c1` (stereo not shown) [PAL-819] it is 90 ± 5%.
On the same count and under the same terms, under `CC(NC1CCC1)C(=O)c1cccc(Cl)c1` (stereo not shown) [PAL-1007] stands 136 ± 9.1%; under `CC(C(=O)c1cccc(Cl)c1)N(C)C` (stereo not shown) [RTI-8], 107 ± 6.3%.
On the same count and under the same terms, the figure for `CC(NC1CCC1)C(=O)c1ccccc1` (stereo not shown) [PAL-933] is 114 ± 2.3%; for `CCC(NC(C)(C)C)C(=O)c1cccc(Cl)c1` (stereo not shown) [RTI-11] it is 131 ± 3.7%; for `CC(NC1CC1)C(=O)c1cccc(Br)c1` (stereo not shown) [PAL-586] it is 93 ± 5.8%.
On to `CC(NC1CCC1)C(=O)c1c[nH]c2ccccc12` (stereo not shown) [PAL-1407], for which the Emax was 98 ± 3.9%.
For the compound `CCCN(CCC)CCc1c[nH]c2ccc(OC)cc12` [PAL-709], the Emax came to 97 ± 7.2%.
The same measure, in the same setting: the figure for `NCCc1c[nH]c2ccccc12` [Tryptamine, tryptamine, reference compound] is 104 ± 1.6%; for `CC(NC(C)(C)C)C(=O)c1cc(Cl)cc(Cl)c1` (stereo not shown) [RTI-17] it is 78 ± 2.8%.
Take `COc1cccc(C(=O)C(C)NC2CC2)c1` (stereo not shown) [PAL-789]: the Emax was 93 ± 10.6%.
With `COc1ccc2c3c([nH]c2c1)CCN(C)CC3` [Tabernanthalog, tabernanthalog], the Emax was 179 ± 9.1%.
On the same count and under the same terms, the figure for `Cc1cccc(C(=O)C(C)NC2CCC2)c1` (stereo not shown) [PAL-1411] is 110 ± 4.5%; for `CC(C(=O)c1cccc(Cl)c1)N(C)C(C)(C)C` (stereo not shown) [RTI-9] it is 87 ± 14.6%; for `CC(NC(C)(C)C)C(=O)c1ccc(Cl)c(Cl)c1` (stereo not shown) [RTI-4] it is 110 ± 5.7%.
For the compound `CN1CCc2[nH]c3ccc(O)cc3c2CC1` [Noribogainalog, noribogainalog], the Emax was found to be 185 ± 17.9%.
Take `C[C@H](NC1CCC1)C(=O)c1cccc(Cl)c1` [PAL-1134]: the maximal effect (Emax) turned out to be 98%.
Same read-out and setting: the figure for `CC(NC(C)(C)C)C(=O)c1cccc(Br)c1` (stereo not shown) [RTI-1] is 161 ± 2.7%; for `Cc1ccc(C(=O)C(C)N(C)Cc2ccccc2)cc1` (stereo not shown) [PAL-945] it is 85%; for `CC(NC1CC1)C(=O)c1cccc(C(F)(F)F)c1` (stereo not shown) [PAL-1178] it is 92 ± 1.2%.
The same measure, in the same setting: under `CNC(C)C(=O)c1cccc(C)c1` (stereo not shown) [PAL-1101] stands 105 ± 3.6%.
The same measure, in the same setting: the figure for `CC(C)N(CCc1c[nH]c2cccc(O)c12)C(C)C` [PAL-1416] is 127 ± 6.6%.
As to `CC(Cc1cccc(Cl)c1)NC(C)(C)C` (stereo not shown) [PAL-1468], the Emax came out at 117%.
In the case of `C[C@@H](NC1CCC1)C(=O)c1cccc(Cl)c1` [PAL-1132], the Emax came out at 110%.
Regarding `CC(C(=O)c1cccc(Cl)c1)N1CCCCC1` (stereo not shown) [RTI-7], the Emax is 102 ± 3.9%.
As for `CC(NC1CC1)C(=O)c1cccc(Cl)c1` (stereo not shown) [PAL-433], the Emax is 93 ± 10.4%.
As to `CC(NC(C)(C)C)C(=O)c1ccc(Cl)cc1` (stereo not shown) [RTI-3], the Emax worked out at 113 ± 6.2%.
On the same count and under the same terms, the figure for `CC1NC(C)(C)COC1(O)c1cc(F)cc(F)c1` (stereo not shown) [RTI-18] is 122%; for `CC1NC(C)(C)COC1(O)c1cc(Cl)cc(Cl)c1` (stereo not shown) [RTI-21] it is 103 ± 3.7%.

Still in this experiment, the particulars now being: HEK293, HEK cells expressing YFP-HA-βlac-DAT, overnight incubation, normalized to vehicle; read-out: EMax (%), WT DAT surface expression.
On to `CN[C@@H](C)[C@H](O)c1ccccc1` [Ephedrine, ephedrine, reference compound], for which the Emax is 128 ± 4.7%.

The same experiment, now with this note: HEK293, read-out: EMax (%), WT DAT surface expression, HEK cells expressing YFP-HA-βlac-DAT, overnight (16 h) incubation, up to 100 μM, normalized to vehicle; assumed effective EMax.
Consider `CC1NC(C)(C)COC1(O)c1cccc(Cl)c1` (stereo not shown) [6-Hydroxybupropion, 6-hydroxybupropion, reference compound], for which the Emax amounted to 148 ± 5.4%.
As to `CC[C@H]1C[C@@H]2C[C@H]3c4[nH]c5ccccc5c4CCN(C2)[C@@H]13` [Ibogamine, reference compound], the Emax was 202 ± 7.1%.
Regarding `CN1CCc2[nH]c3ccc(F)cc3c2CC1` [Fluorogainalog, fluorogainalog], the Emax turned out to be 219 ± 29%.
With `COc1ccc2[nH]c3c(c2c1)CCNC3` [Pinoline, pinoline, reference compound], the Emax stood at 141 ± 4.4%.
In the case of `CN[C@@H]1CCc2[nH]c3ccc(C(N)=O)cc3c2C1` [Frovatriptan, frovatriptan, reference compound], the Emax worked out at 103 ± 1.4%.
Take `CC(CNC(C)(C)C)C(=O)c1cccc(Cl)c1` (stereo not shown) [RTI-10]: the Emax was found to be 36 ± 1.4%.

Still in this experiment, the particulars now being: HEK cells expressing YFP-HA-βlac-DAT, overnight (16 h) incubation, up to 100 μM, normalized to vehicle; assumed effective EMax.
evodiamine [reference compound]: the “EMax (%), WT DAT surface expression” value is 54 ± 1.7%.

By Emax is commonly meant the size of the effect at its maximum, as opposed to the concentration needed.
